ChEMBL document CHEMBL4028801, “A multifactorial approach to hepatobiliary transporter assessment enables improved therapeutic compound development” (Toxicol Sci, 2013)
pIC50: −log10 of the molar value.

Assays:
[1] = molecular target: ATP-binding cassette sub-family C member 3 (Homo sapiens, UniProt O15438); test: Inhibition of human MRP3 overexpressed in Sf9 insect cell membrane vesicles assessed as uptake of [3H]-estradiol-17beta-D-glucuronide in presence of ATP and GSH measured after 10 mins by membrane vesicle transport assay; format: ADME, cell-based
ATP-binding cassette sub-family C member 3, sequence (O15438 whole entry): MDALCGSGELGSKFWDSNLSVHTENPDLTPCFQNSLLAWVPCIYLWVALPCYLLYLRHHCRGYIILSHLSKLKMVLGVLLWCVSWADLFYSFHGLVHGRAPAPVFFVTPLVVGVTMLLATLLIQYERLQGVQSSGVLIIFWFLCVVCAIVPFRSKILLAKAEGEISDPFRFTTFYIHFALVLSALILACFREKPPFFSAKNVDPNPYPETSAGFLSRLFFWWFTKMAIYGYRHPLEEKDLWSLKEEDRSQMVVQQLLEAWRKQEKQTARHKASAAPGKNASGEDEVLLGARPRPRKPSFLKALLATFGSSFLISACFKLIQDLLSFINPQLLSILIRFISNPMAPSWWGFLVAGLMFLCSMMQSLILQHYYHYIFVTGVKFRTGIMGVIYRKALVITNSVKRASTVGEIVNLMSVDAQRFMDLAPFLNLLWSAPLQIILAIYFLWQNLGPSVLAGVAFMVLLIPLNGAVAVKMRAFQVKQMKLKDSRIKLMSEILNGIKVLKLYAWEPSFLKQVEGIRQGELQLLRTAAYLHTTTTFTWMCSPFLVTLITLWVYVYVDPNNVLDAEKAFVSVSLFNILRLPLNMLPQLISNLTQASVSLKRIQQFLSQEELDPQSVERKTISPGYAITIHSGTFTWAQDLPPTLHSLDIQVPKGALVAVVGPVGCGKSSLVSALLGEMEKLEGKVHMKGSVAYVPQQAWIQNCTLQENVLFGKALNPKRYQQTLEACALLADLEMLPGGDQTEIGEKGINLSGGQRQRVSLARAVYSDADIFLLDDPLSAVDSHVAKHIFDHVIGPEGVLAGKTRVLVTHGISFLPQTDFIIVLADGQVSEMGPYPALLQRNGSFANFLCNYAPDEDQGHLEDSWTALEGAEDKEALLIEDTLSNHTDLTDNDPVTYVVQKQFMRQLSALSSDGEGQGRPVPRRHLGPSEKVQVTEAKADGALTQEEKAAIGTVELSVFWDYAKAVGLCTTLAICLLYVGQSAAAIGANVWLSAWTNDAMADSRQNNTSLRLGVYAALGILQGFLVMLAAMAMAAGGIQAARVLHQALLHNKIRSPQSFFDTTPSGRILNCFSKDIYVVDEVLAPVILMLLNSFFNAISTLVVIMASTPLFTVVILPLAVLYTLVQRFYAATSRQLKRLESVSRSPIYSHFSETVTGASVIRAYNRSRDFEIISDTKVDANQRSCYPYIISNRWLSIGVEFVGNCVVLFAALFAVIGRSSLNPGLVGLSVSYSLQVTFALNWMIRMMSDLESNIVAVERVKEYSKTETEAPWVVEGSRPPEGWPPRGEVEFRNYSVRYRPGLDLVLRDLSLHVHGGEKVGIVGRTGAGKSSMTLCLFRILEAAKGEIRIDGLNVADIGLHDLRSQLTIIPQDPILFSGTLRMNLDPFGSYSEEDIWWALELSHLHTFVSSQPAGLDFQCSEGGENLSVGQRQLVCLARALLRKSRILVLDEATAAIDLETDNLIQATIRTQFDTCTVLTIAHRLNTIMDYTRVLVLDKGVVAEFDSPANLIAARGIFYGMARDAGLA

[2] = tested on: Homo sapiens; test: Drug concentration at steady state in human at 25 to 50 mg, po TID after 8 hrs; format: ADME, organism-based; conditions: in vivo
[3] = molecular target: ATP-binding cassette sub-family C member 2 (Homo sapiens, UniProt Q92887); test: Inhibition of human MRP2 overexpressed in Sf9 cell membrane vesicles assessed as uptake of [3H]-estradiol-17beta-D-glucuronide in presence of ATP and GSH measured after 20 mins by membrane vesicle transport assay
ATP-binding cassette sub-family C member 2, sequence (Q92887 whole entry): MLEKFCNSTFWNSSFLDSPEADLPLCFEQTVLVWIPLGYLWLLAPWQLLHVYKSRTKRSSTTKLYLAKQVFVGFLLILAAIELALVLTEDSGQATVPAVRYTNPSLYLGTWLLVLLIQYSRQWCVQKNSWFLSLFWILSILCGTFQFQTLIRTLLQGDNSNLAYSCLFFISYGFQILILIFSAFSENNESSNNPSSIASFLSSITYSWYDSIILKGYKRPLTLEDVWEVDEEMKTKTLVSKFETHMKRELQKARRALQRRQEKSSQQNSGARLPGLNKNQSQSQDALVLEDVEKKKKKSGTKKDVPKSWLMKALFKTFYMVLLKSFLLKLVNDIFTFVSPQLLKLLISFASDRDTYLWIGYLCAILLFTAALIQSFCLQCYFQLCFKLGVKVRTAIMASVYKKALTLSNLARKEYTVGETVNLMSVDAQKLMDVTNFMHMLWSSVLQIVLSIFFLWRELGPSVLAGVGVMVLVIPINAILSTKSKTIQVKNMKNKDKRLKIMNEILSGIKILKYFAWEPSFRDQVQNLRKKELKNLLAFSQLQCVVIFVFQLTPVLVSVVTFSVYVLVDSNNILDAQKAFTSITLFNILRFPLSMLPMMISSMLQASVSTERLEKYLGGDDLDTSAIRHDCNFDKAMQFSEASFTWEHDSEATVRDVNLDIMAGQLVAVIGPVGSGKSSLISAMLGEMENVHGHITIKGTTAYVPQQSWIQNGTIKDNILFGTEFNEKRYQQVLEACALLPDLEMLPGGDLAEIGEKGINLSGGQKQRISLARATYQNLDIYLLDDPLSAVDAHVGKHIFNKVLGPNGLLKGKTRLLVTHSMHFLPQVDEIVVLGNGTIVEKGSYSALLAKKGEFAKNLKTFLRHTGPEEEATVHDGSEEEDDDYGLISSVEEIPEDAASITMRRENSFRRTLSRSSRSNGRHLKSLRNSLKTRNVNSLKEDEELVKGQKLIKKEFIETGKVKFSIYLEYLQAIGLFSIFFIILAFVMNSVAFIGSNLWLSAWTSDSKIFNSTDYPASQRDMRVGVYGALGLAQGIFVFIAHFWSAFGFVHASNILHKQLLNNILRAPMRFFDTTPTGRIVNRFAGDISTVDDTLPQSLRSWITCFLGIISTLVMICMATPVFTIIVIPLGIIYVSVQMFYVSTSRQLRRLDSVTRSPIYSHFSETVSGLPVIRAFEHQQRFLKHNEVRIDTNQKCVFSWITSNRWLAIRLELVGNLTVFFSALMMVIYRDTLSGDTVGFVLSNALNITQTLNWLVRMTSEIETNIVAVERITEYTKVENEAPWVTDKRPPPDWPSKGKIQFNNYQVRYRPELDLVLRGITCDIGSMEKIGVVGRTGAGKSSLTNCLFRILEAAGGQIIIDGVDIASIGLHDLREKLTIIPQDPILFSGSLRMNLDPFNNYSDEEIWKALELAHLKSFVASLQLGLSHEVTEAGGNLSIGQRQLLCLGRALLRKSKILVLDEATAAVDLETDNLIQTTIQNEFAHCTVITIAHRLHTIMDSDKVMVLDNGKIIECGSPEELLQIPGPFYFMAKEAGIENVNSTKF

[4] = molecular target: T1, ATP-binding cassette sub-family C member 4 (Homo sapiens, UniProt O15439); test: Inhibition of human MRP4 overexpressed in Sf9 cell membrane vesicles assessed as uptake of [3H]-estradiol-17beta-D-glucuronide in presence of ATP and GSH measured after 20 mins by membrane vesicle transport assay; format: ADME, cell-based
T1 sequence (O15439 whole entry): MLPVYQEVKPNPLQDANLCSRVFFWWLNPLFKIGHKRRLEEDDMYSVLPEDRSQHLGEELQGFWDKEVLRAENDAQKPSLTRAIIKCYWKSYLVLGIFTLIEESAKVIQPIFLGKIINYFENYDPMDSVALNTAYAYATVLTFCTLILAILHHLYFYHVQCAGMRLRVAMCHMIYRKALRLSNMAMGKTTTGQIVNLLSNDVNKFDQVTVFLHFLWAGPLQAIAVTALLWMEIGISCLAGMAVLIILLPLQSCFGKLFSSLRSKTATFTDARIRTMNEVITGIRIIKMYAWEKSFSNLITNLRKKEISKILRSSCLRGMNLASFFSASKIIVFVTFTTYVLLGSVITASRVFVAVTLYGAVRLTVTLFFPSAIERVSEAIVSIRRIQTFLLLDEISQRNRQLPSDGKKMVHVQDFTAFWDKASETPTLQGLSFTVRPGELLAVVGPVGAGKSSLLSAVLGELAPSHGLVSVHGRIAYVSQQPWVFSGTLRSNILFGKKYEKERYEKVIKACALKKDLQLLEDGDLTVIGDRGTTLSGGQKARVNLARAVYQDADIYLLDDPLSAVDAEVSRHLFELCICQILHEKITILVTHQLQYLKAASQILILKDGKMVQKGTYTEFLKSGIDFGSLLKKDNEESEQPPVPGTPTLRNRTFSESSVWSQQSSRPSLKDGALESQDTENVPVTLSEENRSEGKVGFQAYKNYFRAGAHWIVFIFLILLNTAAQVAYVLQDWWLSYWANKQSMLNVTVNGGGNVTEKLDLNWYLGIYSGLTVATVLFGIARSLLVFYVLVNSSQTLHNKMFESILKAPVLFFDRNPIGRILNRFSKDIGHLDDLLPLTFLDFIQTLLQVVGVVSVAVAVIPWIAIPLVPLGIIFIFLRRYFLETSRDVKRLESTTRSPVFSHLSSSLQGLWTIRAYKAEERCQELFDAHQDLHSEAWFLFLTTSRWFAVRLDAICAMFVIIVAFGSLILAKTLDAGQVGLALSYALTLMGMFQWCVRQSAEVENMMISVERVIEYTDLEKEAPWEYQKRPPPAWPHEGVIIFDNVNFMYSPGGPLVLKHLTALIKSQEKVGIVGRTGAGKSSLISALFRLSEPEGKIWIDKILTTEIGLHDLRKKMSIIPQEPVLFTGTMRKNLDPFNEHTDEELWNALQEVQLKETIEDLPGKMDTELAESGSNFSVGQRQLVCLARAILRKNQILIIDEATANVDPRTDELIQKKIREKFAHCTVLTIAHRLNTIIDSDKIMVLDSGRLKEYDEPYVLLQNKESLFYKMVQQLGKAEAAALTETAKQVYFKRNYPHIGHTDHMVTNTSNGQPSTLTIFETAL

[5] = AUC in human at 5 to 20 mg, iv after 24 hrs; format: ADME, organism-based; conditions: in vivo
[6] = tested on: Homo sapiens; test: Drug concentration at steady state in human at 5 to 20 mg, iv after 24 hrs; format: ADME, organism-based; conditions: in vivo
[7] = molecular target: Bile salt export pump (Homo sapiens, UniProt O95342); test: Inhibition of human BSEP overexpressed in Sf9 cell membrane vesicles assessed as uptake of [3H]-taurocholate in presence of ATP measured after 15 to 20 mins by membrane vesicle transport assay; format: ADME, cell-based
Bile salt export pump, sequence (O95342 whole entry): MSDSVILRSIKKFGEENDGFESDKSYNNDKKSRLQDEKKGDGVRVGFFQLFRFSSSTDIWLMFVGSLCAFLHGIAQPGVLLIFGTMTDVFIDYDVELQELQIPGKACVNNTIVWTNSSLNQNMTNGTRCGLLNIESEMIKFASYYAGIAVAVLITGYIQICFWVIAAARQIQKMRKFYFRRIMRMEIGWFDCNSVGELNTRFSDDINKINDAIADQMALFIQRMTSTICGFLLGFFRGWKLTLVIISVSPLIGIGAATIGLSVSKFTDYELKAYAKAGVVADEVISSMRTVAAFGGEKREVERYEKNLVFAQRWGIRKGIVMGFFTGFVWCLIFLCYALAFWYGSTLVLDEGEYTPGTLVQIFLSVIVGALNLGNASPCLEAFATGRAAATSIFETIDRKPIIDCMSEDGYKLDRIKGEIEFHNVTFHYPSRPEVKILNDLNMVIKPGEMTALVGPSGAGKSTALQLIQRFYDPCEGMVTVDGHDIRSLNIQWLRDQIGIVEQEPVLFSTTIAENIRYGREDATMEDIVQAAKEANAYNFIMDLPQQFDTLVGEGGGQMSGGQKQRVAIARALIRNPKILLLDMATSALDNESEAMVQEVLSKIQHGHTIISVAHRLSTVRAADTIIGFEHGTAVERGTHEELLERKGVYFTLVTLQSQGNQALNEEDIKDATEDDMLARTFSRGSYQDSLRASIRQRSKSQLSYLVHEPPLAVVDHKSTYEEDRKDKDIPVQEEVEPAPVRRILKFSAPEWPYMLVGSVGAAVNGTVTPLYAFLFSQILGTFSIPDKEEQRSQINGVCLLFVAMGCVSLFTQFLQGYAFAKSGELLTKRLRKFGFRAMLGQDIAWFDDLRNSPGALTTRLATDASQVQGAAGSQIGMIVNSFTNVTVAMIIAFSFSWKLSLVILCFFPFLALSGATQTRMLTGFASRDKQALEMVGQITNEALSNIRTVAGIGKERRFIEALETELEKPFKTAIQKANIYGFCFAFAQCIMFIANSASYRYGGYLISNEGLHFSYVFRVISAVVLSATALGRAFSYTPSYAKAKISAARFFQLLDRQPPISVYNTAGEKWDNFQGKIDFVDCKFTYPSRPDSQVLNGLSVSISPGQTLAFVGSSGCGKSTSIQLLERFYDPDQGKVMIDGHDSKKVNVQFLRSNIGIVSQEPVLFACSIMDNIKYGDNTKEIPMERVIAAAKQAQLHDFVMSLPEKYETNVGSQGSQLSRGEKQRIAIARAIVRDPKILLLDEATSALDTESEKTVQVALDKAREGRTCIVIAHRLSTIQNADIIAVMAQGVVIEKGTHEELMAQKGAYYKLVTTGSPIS

[8] = AUC in human at 50 to 400 mg, po BID after 12 hrs; format: ADME, organism-based; conditions: in vivo
[9] = Drug concentration at steady state in human at 50 to 400 mg, po BID after 12 hrs; format: ADME, organism-based; conditions: in vivo, read-out: Css
[10] = Ratio of drug concentration at steady state in human at 50 to 400 mg, po BID after 12 hrs to IC50 for human BSEP overexpressed in Sf9 insect cells; format: ADME, organism-based; conditions: in vivo
[11] = AUC in human at 40 to 80 mg, po QD after 24 hrs; format: ADME, organism-based; conditions: in vivo
[12] = Drug concentration at steady state in human at 40 to 80 mg, po QD after 24 hrs; format: ADME, organism-based; conditions: in vivo, read-out: Css
[13] = Ratio of drug concentration at steady state in human at 40 to 80 mg, po QD after 24 hrs to IC50 for human BSEP overexpressed in Sf9 insect cells; format: ADME, organism-based; conditions: in vivo
[14] = Ratio of drug concentration at steady state in human at 40 to 80 mg, po QD after 24 hrs to IC50 for human MRP4 overexpressed in Sf9 insect cells; format: ADME, organism-based; conditions: in vivo
[15] = AUC in human at 200 mg, po Q3h measured after 3 hrs; format: ADME, organism-based; parameters: dose 200 mg, time < 3 hr, route oral; conditions: in vivo
[16] = Drug concentration at steady state in human at 200 mg, po Q3h measured after 3 hrs; format: ADME, organism-based; conditions: in vivo, read-out: Css
[17] = Ratio of drug concentration at steady state in human at 200 mg, po Q3h measured after 3 hrs to IC50 for human BSEP overexpressed in Sf9 insect cells; format: ADME, organism-based; conditions: in vivo
[18] = Ratio of drug concentration at steady state in human at 200 mg, po Q3h measured after 3 hrs to IC50 for human MRP3 overexpressed in Sf9 insect cells; format: ADME, organism-based; conditions: in vivo
[19] = Ratio of drug concentration at steady state in human at 200 mg, po Q3h measured after 3 hrs to IC50 for human MRP4 overexpressed in Sf9 insect cells; format: ADME, organism-based; conditions: in vivo
[20] = AUC in human at 0.5 to 2 mg/kg, po QD after 24 hrs; format: ADME, organism-based; conditions: in vivo
[21] = Drug concentration at steady state in human at 0.5 to 2 mg/kg, po QD after 24 hrs; format: ADME, organism-based; conditions: in vivo, read-out: Css
[22] = Ratio of drug concentration at steady state in human at 0.5 to 2 mg/kg, po QD after 24 hrs to IC50 for human BSEP overexpressed in Sf9 insect cells; format: ADME, organism-based; conditions: in vivo
[23] = AUC in human at 100 to 600 mg, po QD after 24 hrs; format: ADME, organism-based; conditions: in vivo
[24] = Drug concentration at steady state in human at 100 to 600 mg, po QD after 24 hrs; format: ADME, organism-based; conditions: in vivo, read-out: Css
[25] = Ratio of drug concentration at steady state in human at 100 to 600 mg, po QD after 24 hrs to IC50 for human BSEP overexpressed in Sf9 insect cells; format: ADME, organism-based; conditions: in vivo

Row | Structure (SMILES) | pIC50 [1] | pIC50 [3] | pIC50 [4] | pIC50 [7] | further results
1 | COc1ccc2c(c1)c(CC(=O)O)c(C)n2C(=O)c1ccc(Cl)cc1 [INDOMETHACIN] | 4.18 |  |  |  | Css [2]: 1118 nM
2 | C#C[C@]1(O)CC[C@H]2[C@@H]3CCC4=Cc5oncc5C[C@]4(C)[C@H]3CC[C@@]21C [DANAZOL] | < 3.88 | < 3.88 | < 3.88 | 4.73 | AUC at 12 h [8]: 5.48 µM·h; concentration at 12 h [9]: 457 nM; Ratio [10]: 0.024
3 | Cc1nc(-c2ccc(OCC(C)C)c(C#N)c2)sc1C(=O)O [FEBUXOSTAT] | < 3.88 | < 3.88 | 5.72 | 4.37 | AUC at 24 h [11]: 25.1 µM·h; concentration at 24 h [12]: 1050 nM; Ratio [13]: 0.024; Ratio [14]: 0.55

Continued, in another order:

Row | pIC50 [1] | pIC50 [3] | pIC50 [4] | Structure (SMILES) | pIC50 [7] | further results
4 | 4.14 | 4.75 | 4.36 | CO[C@H]1C[C@@H]2CC[C@@H](C)[C@@](O)(O2)C(=O)C(=O)N2CCCC[C@H]2C(=O)O[C@H]([C@H](C)C[C@@H]2CC[C@@H](OC(=O)C(C)(CO)CO)[C@H](OC)C2)CC(=O)[C@H](C)/C=C(\C)[C@@H](O)[C@@H](OC)C(=O)[C@H](C)C[C@H](C)/C=C/C=C/C=C/1C [TEMSIROLIMUS] |  | AUC at 24 h [5]: 1.91 µM·h; Css [6]: 79 nM
5 | 4.45 | < 3.88 | 5.17 | CCN(CC)C(=O)/C(C#N)=C/c1cc(O)c(O)c([N+](=O)[O-])c1 [ENTACAPONE] | 4.25 | AUC at 3 h [15]: 5.29 µM·h; concentration at 3 h [16]: 1760 nM; Ratio [17]: 0.032; Ratio [18]: 0.05; Ratio [19]: 0.259
6 | < 3.88 | < 3.88 | < 3.88 | CC1=C(/C=C/C(C)=C/C=C/C(C)=C\C(=O)O)C(C)(C)CCC1 [ISOTRETINOIN] | 4.43 | AUC at 24 h [20]: 33.3 µM·h; concentration at 24 h [21]: 1390 nM; Ratio [22]: 0.037
7 | < 3.88 | < 3.88 | < 3.88 | CCOC(=O)Nc1ccc(NCc2ccc(F)cc2)nc1N [FLUPIRTINE] |  | AUC at 24 h [23]: 20 µM·h; concentration at 24 h [24]: 832 nM; Ratio [25]: 0.023
